{"source": "patent US8629178B2", "about": "“Sodium tanshinone IIA sulfonate hydrate and preparation method and use thereof” (priority 2009, dated 2014)", "key": {"[1]": {"assay": "Accelerated stability test (increase of the relative substances by HPLC)", "format": "physicochemical", "conditions": "RH75%, 30° C., lucifuge, sealed in ampoules, sampling time 6 month", "description": "In addition, the accelerated stability test performed according to the Pharmacopoeia of the People's Republic of China (2005 Edition) confirmed that the sodium tanshinone IIA sulfonate hydrate crystal had better storage stability than anhydrous sodium tanshinone IIA sulfonate, and thus can be stably stored for a more longer period.\nUnder RH75%, 30° C. and lucifuge condition, the samples of sodium tanshinone IIA sulfonate hydrate crystals and anhydrous sodium tanshinone IIA sulfonate were separately sealed in ampoules for accelerated stability test, chromatographic conditions: column Kromasil C18 (250 mm×4.6 mm, 5 μm), mobile phase: methanol—0.02 mol/L potassium dihydrogen phosphate solution (adjusted with phosphoric acid to pH=4) (60:40), detection wavelength: 271 nm, flow rate: 1 ml/min, to measure increase extent of the relative substances (see results in Tables 1-2)."}, "[2]": {"assay": "Hygroscopicity test", "format": "physicochemical", "conditions": "25° C.; for Relative to 0 h, weight gain %: relative humidity 75%, sampling time 48 h", "description": "The hygroscopicity test performed according to the Pharmacopoeia of the People's Republic of China (2005 Edition) confirmed that the sodium tanshinone IIA sulfonate hydrate of the present invention is much lower than anhydrous sodium tanshinone IIA sulfonate.\nSamples of sodium tanshinone IIA sulfonate hydrates and anhydrous sodium tanshinone IIA sulfonate: anhydrous sodium tanshinone IIA sulfonate and the hydrates of the present invention, about 5 g for each, were placed in dry watch glass with constant weight, precisely weighed, subjected to the test at 25° C. and a relative humidity (RH) of 75%, separately sampled at 0 h and 48 h of the test, and the percentages of weight gain due to hygroscopicity was calculated."}, "[3]": {"test_system": "calcium paradox cardiac muscle tissue", "assay": "Protection effects on calcium paradox cardiac muscle (ex vivo heart perfusion, Langendorff)", "parameters": "species or system guinea pigs", "conditions": "hydrates 32 mg/L, Iproveratril 2.1 mg/L; for Calcium uptake, x ± S μmol/min/g, dry weight: cardiac muscle tissue; for Calcium uptake, x ± S μmol/min/g, dry weight / Protein release, x ± S mg/min/g, dry weight: 8 guinea pigs per group; for Protein release, x ± S mg/min/g, dry weight: coronary artery effluent of 20 min after calcium restored; for Calcium uptake decrease rate, % / Protein release decrease rate, %: relative to calcium paradox group", "description": "48 Healthy guinea pigs, body weight 280-360 g, were divided into 6 groups, 8 guinea pigs per group, separately comprising: normal control group, calcium paradox group, iproveratril positive control group, 3 drug-administrated groups, the animals were fasted for one night before test, intraperitoneally injected with heparin 0.5 mg/kg, intraperitoneally injected with pentobarbital sodium 30 mg/kg after 20 min, their chests were opened after anesthesia, and hearts were taken out quickly, immersed in Kreb's-Henseleit (K-H) perfusion solution as cooled with ice, after aortic cannulation, the hearts were placed in ex vivo heart perfusion device with constant temperature and constant pressure. […] The effluent of coronary artery of 20 min when calcium-containing perfusion solution was restored was collected, the protein release amounts mg/min/g drywt and cardiac muscle tissue calcium uptake μmol/g drywt in the collected coronary artery effluents were measured according to the reference document."}, "[4]": {"test_system": "arrhythmia induced by calcium chloride in rats", "assay": "Effects on arrhythmia induced by calcium chloride in rats", "format": "in vivo, SD rats", "conditions": "intravenous injection, 10 animals per group, 2.5% calcium chloride 100 mg/kg, hydrates 10 mg/kg, Quinidine 13.5 mg/kg", "description": "50 SD rats were provided, male and female, body weight 226±31 g, randomly divided into 5 groups, separately administered by intravenous injection with physiological saline, Quinidine, […] The rats were anaesthetized with 3% pentobarbital sodium 40 mg·kg^−1, fixed in supine position on operation table, injected via lingual vein for 6 minutes, quickly intravenously injected (completed injection in 5 s) with 2.5% calcium chloride 100 mg·kg^−1 (0.4 ml/100 g), the number of animal with ventricular fibrillation and the number of died animals were recorded."}, "[5]": {"test_system": "ischemic reperfusion brain tissues of rats", "assay": "Effects on rat ischemic reperfusion (NO, NOS, MDA, SOD in brain tissue)", "format": "in vivo, Wistar rats", "conditions": "for Result of the ischemic reperfusion test in words: compared with sodium tanshinone IIA sulfonate 1.5 hydrate", "description": "36 Male Wistar rats, body weight 250-300 g, were randomly divided into 3 groups: sham operation group, ischemic reperfusion group, and group of drug of the invention, 12 rats per group. As for group of drug of the invention: the rats were peritoneally administered with sodium tanshinone IIA sulfonate 1.5 hydrate in physiological saline, does of 40 mg/kg, twice per day, for consecutive 7 days, and subjected to cerebral ischemia operation 60 min after the last administration; the rats of sham operation group and ischemic reperfusion group were administered with the same volume of isometric physiological saline, respectively.\nThe rats were anesthetized with 10% chloral hydrate (3.5 ml/kg) by peritoneal injection, fixed in supine position, modeled by the improved Zea Longa thread occlusion method in document [Journal of Shanghai Jiaotong University (Medicine), 2007, 27(10):1218-1222]; in the sham operation group, thread was merely inserted 10 mm, and other steps were the same as the model group, animals appeared operation-side Horner syndrome and opposite-side movement disorder were deemed as successfully established models. After successful establishment of models, the animals were administered in the same dose as above twice per day, and the sham operation group and ischemic reperfusion group were administered with the same volume of isometric physiological saline, respectively. The thread was drawn out 2 h after model establishment, the rats were executed 24 h after reperfusion, their brains were taken out quickly and weighed. Physiological saline was used to prepare 10% brain tissue homogenate solution at low temperature, centrifuged at low temperature, 3000 r/min for 10 min, the deposit was discarded, the supernatant was taken up and tested to determine SOD, MDA, NO, NOS contents or activities according to the specifications of the corresponding commercial SOD, MDA, NO, NOS kits, the results are shown in Table 4."}, "[6]": {"conditions": "rat brain tissue homogenate, 40 mg/kg peritoneally twice per day, 2 h ischemia, 24 h reperfusion"}}, "data": [{"compound": "Cc1c(S(=O)(=O)[O-])oc2c1C(=O)C(=O)c1c-2ccc2c1CCCC2(C)C.[Na+]", "note": "[Anhydrous Sodium Tanshinone IIA Sulfonate, reference compound]", "values": [{"measurement": "Relative to 0 month, multiple of the relative substances", "setting": "[1]", "result": 1.21}, {"measurement": "Relative to 0 h, weight gain %", "setting": "[2]", "result": 11.43, "unit": "%"}, {"measurement": "Hygroscopicity in words", "setting": "[2]; compared with the sodium tanshinone IIA sulfonate hydrates, RH 75%, 48 h", "result": "much higher"}]}, {"compound": "COc1ccc(CCN(C)CCCC(C#N)(c2ccc(OC)c(OC)c2)C(C)C)cc1OC", "note": "(stereo not drawn) [Iproveratril, reference compound]", "values": [{"measurement": "Calcium uptake, x ± S μmol/min/g, dry weight", "setting": "[3]", "result": "36.9 ± 2.5 μmol/min/g, dry weight"}, {"measurement": "Protein release, x ± S mg/min/g, dry weight", "setting": "[3]", "result": "2.6 ± 0.2 mg/min/g, dry weight"}, {"measurement": "Calcium uptake decrease rate, %", "setting": "[3]", "result": 22.5, "unit": "%"}, {"measurement": "Protein release decrease rate, %", "setting": "[3]", "result": 48, "unit": "%"}]}, {"compound": "C=C[C@H]1C[N@@]2CC[C@H]1C[C@@H]2[C@@H](O)c1ccnc2ccc(OC)cc12", "note": "[Quinidine, reference compound]", "values": [{"measurement": "Arrhythmic animal number (n), Heart arrest", "setting": "[4]", "result": 4, "unit": "n"}, {"measurement": "Arrhythmic animal number (n), Ventricular fibrillation", "setting": "[4]", "result": 6, "unit": "n"}]}, {"compound": "Sodium Tanshinone IIA Sulfonate 0.5 Hydrate", "values": [{"measurement": "Result of the ischemic reperfusion test in words", "setting": "[5]", "result": "results similar to those of the sodium tanshinone IIA sulfonate 1.5 hydrate"}, {"measurement": "Arrhythmic animal number (n), Heart arrest", "setting": "[4]", "result": 4, "unit": "n"}, {"measurement": "Arrhythmic animal number (n), Ventricular fibrillation", "setting": "[4]", "result": 5, "unit": "n"}, {"measurement": "Relative to 0 month, multiple of the relative substances", "setting": "[1]", "result": 0.34}, {"measurement": "Relative to 0 h, weight gain %", "setting": "[2]", "result": 7.96, "unit": "%"}, {"measurement": "Calcium uptake, x ± S μmol/min/g, dry weight", "setting": "[3]", "result": "34.5 ± 2.4 μmol/min/g, dry weight"}, {"measurement": "Protein release, x ± S mg/min/g, dry weight", "setting": "[3]", "result": "2.4 ± 0.2 mg/min/g, dry weight"}, {"measurement": "Calcium uptake decrease rate, %", "setting": "[3]", "result": 27.5, "unit": "%"}, {"measurement": "Protein release decrease rate, %", "setting": "[3]", "result": 52, "unit": "%"}]}, {"compound": "Sodium Tanshinone IIA Sulfonate 1.5 Hydrate", "values": [{"measurement": "MDA", "setting": "[5]; [6]", "result": "2.26 ± 0.62", "unit": "nmol/mL"}, {"measurement": "NO", "setting": "[5]; [6]", "result": "24 ± 6.35", "unit": "µmol/L"}, {"measurement": "NOS", "setting": "[5]; [6]", "result": "22 ± 5.31", "unit": "U/ml"}, {"measurement": "SOD", "setting": "[5]; [6]", "result": "245 ± 21.59", "unit": "U/ml"}, {"measurement": "Arrhythmic animal number (n), Heart arrest", "setting": "[4]", "result": 6, "unit": "n"}, {"measurement": "Arrhythmic animal number (n), Ventricular fibrillation", "setting": "[4]", "result": 5, "unit": "n"}, {"measurement": "Relative to 0 month, multiple of the relative substances", "setting": "[1]", "result": 0.25}, {"measurement": "Relative to 0 h, weight gain %", "setting": "[2]", "result": 4.12, "unit": "%"}, {"measurement": "Calcium uptake, x ± S μmol/min/g, dry weight", "setting": "[3]", "result": "35.2 ± 2.8 μmol/min/g, dry weight"}, {"measurement": "Protein release, x ± S mg/min/g, dry weight", "setting": "[3]", "result": "2.4 ± 0.3 mg/min/g, dry weight"}, {"measurement": "Calcium uptake decrease rate, %", "setting": "[3]", "result": 26.1, "unit": "%"}, {"measurement": "Protein release decrease rate, %", "setting": "[3]", "result": 52, "unit": "%"}]}, {"compound": "Sodium Tanshinone IIA Sulfonate 2.5 Hydrate", "values": [{"measurement": "Result of the ischemic reperfusion test in words", "setting": "[5]", "result": "results similar to those of the sodium tanshinone IIA sulfonate 1.5 hydrate"}, {"measurement": "Arrhythmic animal number (n), Heart arrest", "setting": "[4]", "result": 5, "unit": "n"}, {"measurement": "Arrhythmic animal number (n), Ventricular fibrillation", "setting": "[4]", "result": 6, "unit": "n"}, {"measurement": "Relative to 0 month, multiple of the relative substances", "setting": "[1]", "result": 0.31}, {"measurement": "Relative to 0 h, weight gain %", "setting": "[2]", "result": 1.25, "unit": "%"}, {"measurement": "Calcium uptake, x ± S μmol/min/g, dry weight", "setting": "[3]", "result": "35.4 ± 3.1 μmol/min/g, dry weight"}, {"measurement": "Protein release, x ± S mg/min/g, dry weight", "setting": "[3]", "result": "2.5 ± 0.2 mg/min/g, dry weight"}, {"measurement": "Calcium uptake decrease rate, %", "setting": "[3]", "result": 25.6, "unit": "%"}, {"measurement": "Protein release decrease rate, %", "setting": "[3]", "result": 50, "unit": "%"}]}]}
